Experiment: In vitro drug release (dissolution) of codeine/chlorpheniramine resin conjugate suspension
Format: physicochemical
Method: The dissolution testing shown in Tables I and II was conducted using a release medium of hydrochloric acid, sodium chloride, and sodium dodecylsulfate. […] The dissolution profile for chlorpheniramine, shown in Table II, also is even and predictable, for example, at the initial testing, 42 percent dissolution of chlorpheniramine at 1 hour, 65 percent at 3 hours, 78 percent at 6 hours, and 88 percent at 12 hours.
Further, Tables I and II show even, predictable drug release data at one and one half months, 3 months, 6 months, and 9 months, with only very minor variations. […] Thus, with aging of the product, the release profile is consistent, allowing use of the present invention in compliance with various stability requirements for pharmaceutical products.

[1] = 1-Hour, Initial, HCl/NaCl/sodium dodecylsulfate medium

## CN(C)CCC(c1ccc(Cl)cc1)c1ccccn1 (stereo not shown) [Chlorpheniramine, chlorpheniramine]
1-Hour, 1.5M, 4O C. aging
  Chlorpheniramine Release: 41%
1-Hour, 3M, 4O C. aging
  Chlorpheniramine Release: 43%
1-Hour, 3M, 25 C. aging
  Chlorpheniramine Release: 43%
1-Hour, 6M, 4O C. aging
  Chlorpheniramine Release: 39%
1-Hour, 6M, 25 C. aging
  Chlorpheniramine Release: 41%
1-Hour, 9M, 25 C. aging
  Chlorpheniramine Release: 42%
[1]
  Chlorpheniramine Release: 1-Hour 42%
1-Hour, Initial, HCl/NaCl/sodium dodecylsulfate medium, listed as chlorpheniramine
  Chlorpheniramine Release: 42%
3-Hour, 1.5M, 4O C. aging
  Chlorpheniramine Release: 63%
3-Hour, 3M, 4O C. aging
  Chlorpheniramine Release: 65%
3-Hour, 3M, 25 C. aging
  Chlorpheniramine Release: 64%
3-Hour, 6M, 4O C. aging
  Chlorpheniramine Release: 62%
3-Hour, 6M, 25 C. aging
  Chlorpheniramine Release: 63%
3-Hour, 9M, 25 C. aging
  Chlorpheniramine Release: 63%
3-Hour, Initial
  Chlorpheniramine Release: 3-Hour 65%
3-Hour, Initial, listed as chlorpheniramine
  Chlorpheniramine Release: 65%
6-Hour, 1.5M, 4O C. aging
  Chlorpheniramine Release: 77%
6-Hour, 3M, 4O C. aging
  Chlorpheniramine Release: 78%
6-Hour, 3M, 25 C. aging
  Chlorpheniramine Release: 77%
6-Hour, 6M, 4O C. aging
  Chlorpheniramine Release: 76%
6-Hour, 6M, 25 C. aging
  Chlorpheniramine Release: 76%
6-Hour, 9M, 25 C. aging
  Chlorpheniramine Release: 77%
6-Hour, Initial
  Chlorpheniramine Release: 6-Hour 78%
6-Hour, Initial, listed as chlorpheniramine
  Chlorpheniramine Release: 78%
12-Hour, 1.5M, 4O C. aging
  Chlorpheniramine Release: 87%
12-Hour, 3M, 4O C. aging
  Chlorpheniramine Release: 90%
12-Hour, 3M, 25 C. aging
  Chlorpheniramine Release: 88%
12-Hour, 6M, 4O C. aging
  Chlorpheniramine Release: 87%
12-Hour, 6M, 25 C. aging
  Chlorpheniramine Release: 87%
12-Hour, 9M, 25 C. aging
  Chlorpheniramine Release: 88%
12-Hour, Initial
  Chlorpheniramine Release: 12-Hour 88%
12-Hour, Initial, listed as chlorpheniramine
  Chlorpheniramine Release: 88%

## COc1ccc2c3c1O[C@H]1[C@@H](O)C=C[C@H]4[C@@H](C2)N(C)CC[C@@]341 [Codeine, codeine]
1-Hour, 1.5M, 4O C. aging
  Codeine Release: 55%
1-Hour, 3M, 4O C. aging
  Codeine Release: 56%
1-Hour, 3M, 25 C. aging
  Codeine Release: 54%
1-Hour, 6M, 4O C. aging
  Codeine Release: 54%
1-Hour, 6M, 25 C. aging
  Codeine Release: 54%
1-Hour, 9M, 25 C. aging
  Codeine Release: 54%
[1]
  Codeine Release: 1-Hour 54%
1-Hour, Initial, HCl/NaCl/sodium dodecylsulfate medium, listed as codeine
  Codeine Release: 54%
3-Hour, 1.5M, 4O C. aging
  Codeine Release: 77%
3-Hour, 3M, 4O C. aging
  Codeine Release: 77%
3-Hour, 3M, 25 C. aging
  Codeine Release: 75%
3-Hour, 6M, 4O C. aging
  Codeine Release: 77%
3-Hour, 6M, 25 C. aging
  Codeine Release: 75%
3-Hour, 9M, 25 C. aging
  Codeine Release: 75%
3-Hour, Initial
  Codeine Release: 3-Hour 75%
3-Hour, Initial, listed as codeine
  Codeine Release: 75%
6-Hour, 1.5M, 4O C. aging
  Codeine Release: 88%
6-Hour, 3M, 4O C. aging
  Codeine Release: 88%
6-Hour, 3M, 25 C. aging
  Codeine Release: 86%
6-Hour, 6M, 4O C. aging
  Codeine Release: 87%
6-Hour, 6M, 25 C. aging
  Codeine Release: 85%
6-Hour, 9M, 25 C. aging
  Codeine Release: 86%
6-Hour, Initial
  Codeine Release: 6-Hour 86%
6-Hour, Initial, listed as codeine
  Codeine Release: 86%
12-Hour, 1.5M, 4O C. aging
  Codeine Release: 95%
12-Hour, 3M, 4O C. aging
  Codeine Release: 95%
12-Hour, 3M, 25 C. aging
  Codeine Release: 93%
12-Hour, 6M, 4O C. aging
  Codeine Release: 94%
12-Hour, 6M, 25 C. aging
  Codeine Release: 93%
12-Hour, 9M, 25 C. aging
  Codeine Release: 94%
12-Hour, Initial
  Codeine Release: 12-Hour 93%
12-Hour, Initial, listed as codeine
  Codeine Release: 93%
